In experiment [1] the target is kinases of Table 5 (Homo sapiens, UniProt P37173). The experiment is described as follows: Further analysis of a plurality of inhibitors and a plurality of kinases (Table 5 inhibition results). The conditions noted are these: kinase TGFBR2 (Part I, plate C7, Domain 1). The arrangement: scale not given here. In kind it is biochemical. The text has this:
(§1) The wash solution is then discarded.

For experiment [2], the target named is kinases of Table 5 (Homo sapiens, UniProt O75914). Described as above. The class given is biochemical. Also noted: scale not given here. The conditions noted are these: kinase PAK3.
kinases of Table 5 (Homo sapiens, UniProt O75914), sequence (O75914 whole entry): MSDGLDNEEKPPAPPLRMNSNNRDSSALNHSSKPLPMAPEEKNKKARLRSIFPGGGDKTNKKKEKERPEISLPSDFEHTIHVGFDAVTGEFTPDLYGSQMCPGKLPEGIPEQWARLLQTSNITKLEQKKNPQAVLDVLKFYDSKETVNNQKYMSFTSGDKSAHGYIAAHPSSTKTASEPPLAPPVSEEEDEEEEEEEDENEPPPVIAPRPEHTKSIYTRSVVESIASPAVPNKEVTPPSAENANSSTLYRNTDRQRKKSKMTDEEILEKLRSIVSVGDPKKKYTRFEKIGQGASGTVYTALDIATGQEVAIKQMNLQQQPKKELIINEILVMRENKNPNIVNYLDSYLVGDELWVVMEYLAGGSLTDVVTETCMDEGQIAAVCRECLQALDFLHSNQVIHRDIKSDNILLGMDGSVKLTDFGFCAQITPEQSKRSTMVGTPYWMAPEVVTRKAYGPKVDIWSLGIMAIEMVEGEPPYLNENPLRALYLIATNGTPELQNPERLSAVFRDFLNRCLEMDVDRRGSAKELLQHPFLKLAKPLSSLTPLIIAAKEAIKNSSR
Source text: as §1

The target in experiment [3] is kinases of Table 5 (Homo sapiens, UniProt P21802). Described as above. In kind it is biochemical. The arrangement: scale not given here. The settings on record: for Inhibition Results (Level): kinase FGFR2 (Part I, plate G8, Domain 1); for Inhibition level: kinase FGFR2.
kinases of Table 5 (Homo sapiens, UniProt P21802), sequence (P21802 22-821): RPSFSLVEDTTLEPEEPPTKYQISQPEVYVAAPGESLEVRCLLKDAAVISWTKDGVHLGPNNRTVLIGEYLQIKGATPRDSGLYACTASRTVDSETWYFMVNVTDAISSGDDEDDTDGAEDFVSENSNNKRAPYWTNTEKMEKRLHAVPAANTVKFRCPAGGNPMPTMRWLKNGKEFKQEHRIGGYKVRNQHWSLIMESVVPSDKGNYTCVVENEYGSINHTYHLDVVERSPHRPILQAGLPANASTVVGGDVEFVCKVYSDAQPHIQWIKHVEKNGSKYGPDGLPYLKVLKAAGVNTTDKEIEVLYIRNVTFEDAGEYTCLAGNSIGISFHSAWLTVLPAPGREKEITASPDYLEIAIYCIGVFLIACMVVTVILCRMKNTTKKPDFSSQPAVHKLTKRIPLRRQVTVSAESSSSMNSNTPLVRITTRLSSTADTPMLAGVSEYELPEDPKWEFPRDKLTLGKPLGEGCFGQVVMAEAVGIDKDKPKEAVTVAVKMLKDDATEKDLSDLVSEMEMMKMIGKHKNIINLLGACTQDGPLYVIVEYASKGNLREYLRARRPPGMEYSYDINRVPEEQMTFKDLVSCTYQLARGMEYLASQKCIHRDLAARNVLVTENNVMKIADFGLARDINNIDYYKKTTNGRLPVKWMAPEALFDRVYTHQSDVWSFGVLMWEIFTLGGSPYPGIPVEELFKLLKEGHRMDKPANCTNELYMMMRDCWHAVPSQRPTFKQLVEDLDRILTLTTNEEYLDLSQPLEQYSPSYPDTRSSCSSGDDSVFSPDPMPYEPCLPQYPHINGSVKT
Source text: as §1

The target in experiment [4] is kinases of Table 5 (Homo sapiens, UniProt P09769). The description is as above. The class given is biochemical. Also noted: scale not given here. The conditions noted are these: kinase FGR.
kinases of Table 5 (Homo sapiens, UniProt P09769), sequence (P09769 whole entry): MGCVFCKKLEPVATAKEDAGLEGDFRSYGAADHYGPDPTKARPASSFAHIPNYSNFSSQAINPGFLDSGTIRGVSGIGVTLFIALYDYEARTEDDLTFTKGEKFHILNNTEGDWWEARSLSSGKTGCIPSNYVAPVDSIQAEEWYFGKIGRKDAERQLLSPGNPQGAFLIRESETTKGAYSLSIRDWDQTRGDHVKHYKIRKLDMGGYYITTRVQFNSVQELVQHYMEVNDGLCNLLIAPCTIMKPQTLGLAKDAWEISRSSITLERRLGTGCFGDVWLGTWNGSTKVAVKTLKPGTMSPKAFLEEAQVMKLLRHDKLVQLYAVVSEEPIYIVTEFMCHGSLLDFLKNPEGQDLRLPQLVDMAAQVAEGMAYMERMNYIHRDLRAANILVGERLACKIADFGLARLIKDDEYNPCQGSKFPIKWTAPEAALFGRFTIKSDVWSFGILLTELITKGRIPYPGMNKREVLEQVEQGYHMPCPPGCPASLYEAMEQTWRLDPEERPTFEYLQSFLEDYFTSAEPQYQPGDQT
Source text: as §1

The target of experiment [5] is kinases of Table 5 (Homo sapiens, UniProt Q8IU85). The description is as above. The conditions noted are these: kinase LOC57118; inhibitor 100 uM. Also noted: scale not given here. In kind it is biochemical.
kinases of Table 5 (Homo sapiens, UniProt Q8IU85), sequence (Q8IU85 whole entry): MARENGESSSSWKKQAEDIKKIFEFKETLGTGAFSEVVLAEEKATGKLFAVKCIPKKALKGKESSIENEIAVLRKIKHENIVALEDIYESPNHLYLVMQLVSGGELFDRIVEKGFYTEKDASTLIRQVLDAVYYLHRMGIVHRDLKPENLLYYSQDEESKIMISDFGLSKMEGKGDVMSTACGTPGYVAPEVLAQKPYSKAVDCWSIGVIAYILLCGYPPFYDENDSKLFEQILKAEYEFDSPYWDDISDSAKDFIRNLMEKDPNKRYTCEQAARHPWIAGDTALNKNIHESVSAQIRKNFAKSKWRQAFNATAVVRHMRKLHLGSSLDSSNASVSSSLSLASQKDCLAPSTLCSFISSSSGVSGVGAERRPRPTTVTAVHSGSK
Source text: as §1

In experiment [6] the target is T1, kinases of Table 5 (Homo sapiens, UniProt Q9UQB9).
T1 sequence (Q9UQB9 1-309): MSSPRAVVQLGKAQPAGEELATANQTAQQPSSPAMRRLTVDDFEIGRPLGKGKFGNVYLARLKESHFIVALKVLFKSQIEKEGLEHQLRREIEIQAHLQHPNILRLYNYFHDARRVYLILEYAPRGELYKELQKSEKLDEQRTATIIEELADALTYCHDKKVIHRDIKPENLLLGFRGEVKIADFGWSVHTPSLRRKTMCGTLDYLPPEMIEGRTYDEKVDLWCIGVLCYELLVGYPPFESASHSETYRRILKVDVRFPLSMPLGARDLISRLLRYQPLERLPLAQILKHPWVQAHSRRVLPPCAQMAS
The description is as above. In kind it is biochemical. Also noted: scale not given here. The conditions noted are these: kinase STK13 (Part I, plate G11, Domain 1); inhibitor 100 uM.
Source text: as §1

Experiment [7] has as its target kinases of Table 5 (Homo sapiens, UniProt P68400). Described as above. Also noted: scale not given here. The conditions noted are these: kinase CSNK2A1. The class given is biochemical.
Source text: as §1

Experiment [8] deals with T2, kinases of Table 5 (Homo sapiens, UniProt P41743).
T2 sequence (P41743 1-596): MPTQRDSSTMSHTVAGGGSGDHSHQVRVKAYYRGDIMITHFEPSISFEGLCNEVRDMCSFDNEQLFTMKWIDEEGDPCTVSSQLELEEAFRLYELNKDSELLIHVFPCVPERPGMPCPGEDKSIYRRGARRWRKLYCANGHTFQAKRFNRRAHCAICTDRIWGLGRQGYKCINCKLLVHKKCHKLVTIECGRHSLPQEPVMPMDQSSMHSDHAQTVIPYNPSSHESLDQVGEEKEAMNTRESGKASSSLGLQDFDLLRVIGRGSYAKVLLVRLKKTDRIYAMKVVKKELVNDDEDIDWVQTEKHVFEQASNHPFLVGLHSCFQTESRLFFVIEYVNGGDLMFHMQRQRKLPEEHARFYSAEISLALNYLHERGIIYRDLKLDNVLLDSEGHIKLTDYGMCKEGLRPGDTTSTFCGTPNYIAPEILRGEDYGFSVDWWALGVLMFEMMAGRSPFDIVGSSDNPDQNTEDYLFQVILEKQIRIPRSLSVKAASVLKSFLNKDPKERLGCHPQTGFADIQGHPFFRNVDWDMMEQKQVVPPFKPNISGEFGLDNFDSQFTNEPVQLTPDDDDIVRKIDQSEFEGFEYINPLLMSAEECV
Described as above. The settings on record: kinase PRKCI (Part I, plate A2, Domain 0). The class given is biochemical. Also noted: scale not given here.
Source text: as §1

Experiment [9] deals with T3, kinases of Table 5 (Homo sapiens, UniProt Q8IV63).
T3 sequence (Q8IV63 1-474): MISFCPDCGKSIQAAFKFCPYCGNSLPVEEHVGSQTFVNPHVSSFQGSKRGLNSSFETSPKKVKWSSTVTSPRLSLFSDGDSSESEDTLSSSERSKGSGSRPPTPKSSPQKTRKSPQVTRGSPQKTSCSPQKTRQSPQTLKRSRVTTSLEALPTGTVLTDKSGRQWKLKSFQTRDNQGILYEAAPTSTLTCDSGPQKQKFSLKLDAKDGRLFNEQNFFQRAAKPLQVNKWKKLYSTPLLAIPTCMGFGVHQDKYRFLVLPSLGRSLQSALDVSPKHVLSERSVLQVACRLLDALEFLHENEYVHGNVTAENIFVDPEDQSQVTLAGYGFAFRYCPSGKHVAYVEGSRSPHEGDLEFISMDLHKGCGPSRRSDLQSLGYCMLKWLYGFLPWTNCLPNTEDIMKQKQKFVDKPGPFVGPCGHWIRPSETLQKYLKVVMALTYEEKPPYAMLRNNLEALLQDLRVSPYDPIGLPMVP
The experiment is described as above. The class given is biochemical. Also noted: scale not given here. The conditions noted are these: kinase LOC51231 (Part I, plate C12, Domain 1).
Source text: as §1

Experiment [10] deals with kinases of Table 5 (Homo sapiens, UniProt Q9UIK4). Described as above. The conditions noted are these: kinase DAPK2. The arrangement: scale not given here. The class given is biochemical.
kinases of Table 5 (Homo sapiens, UniProt Q9UIK4), sequence (Q9UIK4 whole entry): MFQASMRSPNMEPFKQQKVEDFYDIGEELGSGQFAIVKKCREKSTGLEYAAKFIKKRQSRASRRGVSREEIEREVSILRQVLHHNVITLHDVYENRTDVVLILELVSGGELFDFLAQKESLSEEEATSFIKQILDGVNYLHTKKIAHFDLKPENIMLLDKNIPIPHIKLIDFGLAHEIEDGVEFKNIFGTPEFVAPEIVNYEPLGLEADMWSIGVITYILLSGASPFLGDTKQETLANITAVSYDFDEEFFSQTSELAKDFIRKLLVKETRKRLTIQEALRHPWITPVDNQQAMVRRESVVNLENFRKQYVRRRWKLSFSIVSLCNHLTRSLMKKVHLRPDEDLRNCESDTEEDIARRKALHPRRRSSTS
Source text: as §1

Experiment [11] concerns the target T4, kinases of Table 5 (Homo sapiens, UniProt Q92630).
T4 sequence (Q92630 1-601): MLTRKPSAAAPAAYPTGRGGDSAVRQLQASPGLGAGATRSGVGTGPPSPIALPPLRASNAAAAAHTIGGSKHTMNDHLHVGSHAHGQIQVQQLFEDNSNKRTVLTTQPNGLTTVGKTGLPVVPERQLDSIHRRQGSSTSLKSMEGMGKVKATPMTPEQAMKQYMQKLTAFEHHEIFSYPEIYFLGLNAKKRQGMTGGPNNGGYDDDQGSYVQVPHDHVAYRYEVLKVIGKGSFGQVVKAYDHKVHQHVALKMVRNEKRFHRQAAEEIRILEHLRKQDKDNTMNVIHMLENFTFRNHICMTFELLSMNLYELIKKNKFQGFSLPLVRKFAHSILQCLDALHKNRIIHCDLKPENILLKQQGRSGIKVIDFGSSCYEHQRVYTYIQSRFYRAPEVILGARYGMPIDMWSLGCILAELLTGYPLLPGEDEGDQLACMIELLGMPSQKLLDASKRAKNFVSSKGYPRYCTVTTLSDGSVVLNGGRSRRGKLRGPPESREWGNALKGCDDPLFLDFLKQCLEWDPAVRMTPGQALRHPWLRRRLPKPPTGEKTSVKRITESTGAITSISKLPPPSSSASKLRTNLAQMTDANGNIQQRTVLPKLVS
The experiment is described as above. Also noted: scale not given here. The conditions noted are these: kinase DYRK2. The class given is biochemical.
Source text: as §1

Another experiment has as its system 39 kinases (Table 4). The settings on record: known general specificities of the inhibitors; cited from earlier work.

kinases of Table 5 (Homo sapiens, UniProt P37173), sequence (P37173 23-567): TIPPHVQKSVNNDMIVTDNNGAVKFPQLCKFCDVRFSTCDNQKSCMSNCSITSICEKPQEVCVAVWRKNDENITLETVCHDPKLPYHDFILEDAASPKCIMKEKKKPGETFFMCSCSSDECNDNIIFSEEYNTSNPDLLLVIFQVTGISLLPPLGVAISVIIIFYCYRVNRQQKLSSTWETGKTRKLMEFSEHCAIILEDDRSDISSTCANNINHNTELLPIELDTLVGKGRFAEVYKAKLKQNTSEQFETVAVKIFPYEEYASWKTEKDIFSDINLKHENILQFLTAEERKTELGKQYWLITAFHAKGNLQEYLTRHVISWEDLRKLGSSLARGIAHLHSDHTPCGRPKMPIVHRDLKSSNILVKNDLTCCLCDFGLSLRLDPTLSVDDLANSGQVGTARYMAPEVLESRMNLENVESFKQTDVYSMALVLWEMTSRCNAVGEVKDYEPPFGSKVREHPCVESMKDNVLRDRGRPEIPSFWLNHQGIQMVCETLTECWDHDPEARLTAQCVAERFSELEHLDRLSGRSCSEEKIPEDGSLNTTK
kinases of Table 5 (Homo sapiens, UniProt P68400), sequence (P68400 whole entry): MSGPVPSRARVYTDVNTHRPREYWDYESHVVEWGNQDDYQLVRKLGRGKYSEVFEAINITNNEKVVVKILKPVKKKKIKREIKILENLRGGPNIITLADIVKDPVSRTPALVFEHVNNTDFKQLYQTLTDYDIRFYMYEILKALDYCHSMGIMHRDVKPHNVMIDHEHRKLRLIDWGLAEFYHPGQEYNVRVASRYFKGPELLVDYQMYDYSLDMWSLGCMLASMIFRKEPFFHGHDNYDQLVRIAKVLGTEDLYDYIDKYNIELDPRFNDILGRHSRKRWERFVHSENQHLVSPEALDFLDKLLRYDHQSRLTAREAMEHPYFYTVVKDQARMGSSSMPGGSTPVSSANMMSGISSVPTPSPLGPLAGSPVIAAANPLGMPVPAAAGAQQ

As for `CC(C)(C)n1nc(-c2ccc(Cl)cc2)c2c(N)ncnc21` [PP2], the “Inhibition Results (Level)” value amounted to 2 at kinases of Table 5 [1] (inhibitor 100 uM); 2 at kinases of Table 5 [3] (inhibitor 100 uM); 2 on kinases of Table 5 [6]; 1 on kinases of Table 5 [8] (inhibitor 100 uM); 0 on kinases of Table 5 [9] (inhibitor 100 uM). In addition, the Inhibition level at kinases of Table 5 [2] (inhibitor 100 uM) was found to be 2; on kinases of Table 5 [3] (inhibitor 100 uM), 2; at kinases of Table 5 [4] (inhibitor 100 uM) it was 2; at kinases of Table 5 [5], 0; at kinases of Table 5 [7] (inhibitor 100 uM), 2; on kinases of Table 5 [10] (inhibitor 100 uM), 2. The Inhibition level on kinases of Table 5 [11] (inhibitor 100 uM) stood at 2. Also, the “General Specificity” value in the experiment on 39 kinases (Table 4) is recorded as “Tyrosine”.

Regarding `Cn1cc(C2=C(c3cn(CCCSC(=N)N)c4ccccc34)C(=O)NC2=O)c2ccccc21` [Ro-31-8220], the “Inhibition Results (Level)” value on kinases of Table 5 [1] (inhibitor 90 uM), on kinases of Table 5 [1] (inhibitor 100 uM), at kinases of Table 5 [3] (inhibitor 90 uM), at kinases of Table 5 [3] (inhibitor 100 uM), at kinases of Table 5 [6] and on kinases of Table 5 [8] (inhibitor 90 uM) was 2 in each case. Further, the “Inhibition Results (Level)” value at kinases of Table 5 [8] (inhibitor 100 uM) was found to be 0; on kinases of Table 5 [9] (inhibitor 90 uM), 0; on kinases of Table 5 [9] (inhibitor 100 uM), 2. The Inhibition level on kinases of Table 5 [2] (concentration not given) is recorded as 2; on kinases of Table 5 [2] (inhibitor 100 uM), 2; on kinases of Table 5 [3] (concentration not given), 0; on kinases of Table 5 [3] (inhibitor 100 uM), 2; on kinases of Table 5 [4] (concentration not given), 2; on kinases of Table 5 [4] (inhibitor 100 uM), 2. Besides, the Inhibition level worked out at 0 at kinases of Table 5 [5]; 0 at kinases of Table 5 [7] (concentration not given); 2 on kinases of Table 5 [7] (inhibitor 100 uM); 2 on kinases of Table 5 [10] (concentration not given); 2 on kinases of Table 5 [10] (inhibitor 100 uM); 0 at kinases of Table 5 [11] (concentration not given). At kinases of Table 5 [11] (inhibitor 100 uM), the Inhibition level is 2. For the same molecule, the “General Specificity” value with 39 kinases (Table 4) is “Serine/threonine”.
